Test results from ChEMBL document CHEMBL1201862, “PubChem BioAssay data set” (2004).
Activity calls are given as the source filed them.

Key:
[1] = biological target: T1, Carboxy-terminal domain RNA polymerase II polypeptide A small phosphatase 1 (Homo sapiens, UniProt Q9GZU7); assay: CTDSP1 inhibitors, concentration-response, biochemical, absorbance readout, ultra-high-throughput screen actives (AID 540297); format: functional
T1 sequence (Q9GZU7 whole entry): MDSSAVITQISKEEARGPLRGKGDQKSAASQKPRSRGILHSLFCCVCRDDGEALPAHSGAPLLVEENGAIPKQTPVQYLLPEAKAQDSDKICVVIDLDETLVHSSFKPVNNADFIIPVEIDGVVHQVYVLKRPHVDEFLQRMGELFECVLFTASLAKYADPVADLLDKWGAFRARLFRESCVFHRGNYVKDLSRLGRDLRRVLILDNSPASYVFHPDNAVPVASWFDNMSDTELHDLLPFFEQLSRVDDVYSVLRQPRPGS

[2] = biological target: T2, Corticotropin-releasing factor receptor 2/Corticotropin-releasing factor-binding protein (Homo sapiens, UniProt P24387+Q13324); assay: activators of CRF receptor 2 with binding protein – uHTS hits, confirmation (AID 602473); format: functional; details: read-out: EC50_Mean
T2 sequence (Q13324 whole entry): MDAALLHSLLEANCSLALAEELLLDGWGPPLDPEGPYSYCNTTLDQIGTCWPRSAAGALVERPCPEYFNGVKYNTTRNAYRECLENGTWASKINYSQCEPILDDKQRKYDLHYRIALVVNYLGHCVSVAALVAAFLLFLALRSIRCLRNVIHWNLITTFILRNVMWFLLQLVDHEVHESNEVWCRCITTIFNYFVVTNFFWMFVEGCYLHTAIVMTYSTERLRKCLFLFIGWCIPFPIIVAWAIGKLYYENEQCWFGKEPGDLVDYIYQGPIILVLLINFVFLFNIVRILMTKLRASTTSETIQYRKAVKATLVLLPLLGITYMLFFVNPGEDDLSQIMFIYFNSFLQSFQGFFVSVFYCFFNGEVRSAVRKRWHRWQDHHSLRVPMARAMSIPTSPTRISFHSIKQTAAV
T2 sequence (P24387 whole entry): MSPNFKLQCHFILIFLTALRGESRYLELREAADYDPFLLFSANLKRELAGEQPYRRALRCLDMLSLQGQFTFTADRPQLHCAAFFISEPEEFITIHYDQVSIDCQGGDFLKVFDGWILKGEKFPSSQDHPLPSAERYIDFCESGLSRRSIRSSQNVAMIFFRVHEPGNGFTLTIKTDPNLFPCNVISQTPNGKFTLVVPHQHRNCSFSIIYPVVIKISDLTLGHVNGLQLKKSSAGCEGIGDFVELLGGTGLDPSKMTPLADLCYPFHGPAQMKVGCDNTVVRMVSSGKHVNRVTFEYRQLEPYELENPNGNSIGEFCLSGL

[3] = biological target: T2, Corticotropin-releasing factor receptor 2/Corticotropin-releasing factor-binding protein; assay: Dose Response confirmation of uHTS hits for small molecule antagonists of the CRF-binding protein and CRF-R2 receptor complex.; format: functional; details: read-out: IC50_Mean
[4] = Luminescence Cell-Based Dose Confirmation HTS to Identify Activators of 5'UTR Stem-Loop Driven Alpha-Synuclein mRNA Translation in H4 Neuroglioblastoma Cells. [Related pubchem assays: 1829 (Project Summary), 1814 (Primary HTS)]; format: functional
[5] = test system: H4; assay: Luminescence Cell-Based Dose Response HTS to Identify Activators of 5'UTR Stem-Loop Driven Prion Protein mRNA Translation in H4 Neuroglioblastoma Cells. [Related pubchem assays: 1829 (Project Summary), 1814 (Primary HTS)]; format: functional; details: Homo sapiens
[6] = Luminescence Cell-Based Dose Response HTS to Identify Activators of Luciferase Translation or Activity in H4 […] Cells. [Related pubchem assays: 1829 (Project Summary), 1814 (Primary HTS)]; format: functional
[7] = biological target: T3, Polyadenylate-binding protein 1 (Homo sapiens, UniProt P11940); assay: MLLE domain peptide-binding blockers, IC50 – biochemical, fluorescence polarization, FITC-PAM2 peptide, dose response (AID 602259); format: functional; details: read-out: IC50_Mean
[8] = biological target: T3, Polyadenylate-binding protein 1; assay: MLLE binding blockers, Cy5 peptide tracer – biochemical, fluorescence polarization, Cy5-PAM2 peptide, secondary, miRNA deadenylation inhibitor project, dose response (AID 602260); format: functional; details: read-out: IC50_Mean
[9] = non-specific 3'UTR reporter inhibition in Clone20-Shn3RL – cell-based, Renilla luciferase, cherry-picked, counter-screen for Shn3 inhibitor project, dose response (AID 624133); format: functional
[10] = loss of viability in HepG2 cells – cell-based, CellTiter-Glo, cherry-picked, cytotoxicity control for Shn3 inhibitor project, dose response (AID 624134); format: functional
[11] = reduction of Shn3 3'UTR-driven luciferase in osteoblasts – cell-based, Clone20 osteoblasts, firefly luciferase, cherry-picked, dose response (AID 624132); format: functional;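 note: firefly luciferase luminescence from reporter carrying the Shn3 3'UTR in osteoblasts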
[12] = biological target: T4, High affinity choline transporter 1 (Homo sapiens, UniProt Q9GZV3); assay: human choline transporter blockers, potency – cell-based, 5-point CRC, membrane potential dye, dose response (AID 504840); format: functional
T4 sequence (Q9GZV3 whole entry): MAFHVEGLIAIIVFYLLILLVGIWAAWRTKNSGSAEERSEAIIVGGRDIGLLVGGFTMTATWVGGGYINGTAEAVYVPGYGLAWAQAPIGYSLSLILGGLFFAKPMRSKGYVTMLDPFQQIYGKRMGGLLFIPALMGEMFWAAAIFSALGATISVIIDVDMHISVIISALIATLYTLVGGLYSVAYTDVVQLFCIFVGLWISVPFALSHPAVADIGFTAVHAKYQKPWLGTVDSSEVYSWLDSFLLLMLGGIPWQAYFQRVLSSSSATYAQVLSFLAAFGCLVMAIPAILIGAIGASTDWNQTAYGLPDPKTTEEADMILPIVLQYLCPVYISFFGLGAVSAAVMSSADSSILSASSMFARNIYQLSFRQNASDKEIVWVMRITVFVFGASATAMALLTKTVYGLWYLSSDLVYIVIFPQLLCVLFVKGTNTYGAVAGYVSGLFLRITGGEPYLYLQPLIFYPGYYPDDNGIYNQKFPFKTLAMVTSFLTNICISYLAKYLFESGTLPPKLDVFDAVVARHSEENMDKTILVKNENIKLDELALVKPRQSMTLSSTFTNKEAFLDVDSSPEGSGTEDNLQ

[13] = biological target: Large T antigen (Simian virus 40, UniProt P03070); format: functional, Betapolyomavirus macacae;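 note: Confirmatory-stage PubChem screen for compounds that inhibit SV40 T antigen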
[14] = test system: INS1; assay: INS-1E survival protection against cytokine death – cell-based, luminescence, retest, dose response (AID 449756); format: functional; details: Rattus norvegicus;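 note: cell death triggered by IL-1 beta plus TNF-alpha plus IFN-gamma mixture; protective hits raise ATP signal compared with cytokine alone wells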
[15] = viability of uninfected HEp-2 cells – cell-based, HTS, cytotoxicity control for RSV inhibitor project, dose response (AID 2410); format: functional; details: human respiratory syncytial virus

T3 sequence (P11940 whole entry, the tested form may be a part): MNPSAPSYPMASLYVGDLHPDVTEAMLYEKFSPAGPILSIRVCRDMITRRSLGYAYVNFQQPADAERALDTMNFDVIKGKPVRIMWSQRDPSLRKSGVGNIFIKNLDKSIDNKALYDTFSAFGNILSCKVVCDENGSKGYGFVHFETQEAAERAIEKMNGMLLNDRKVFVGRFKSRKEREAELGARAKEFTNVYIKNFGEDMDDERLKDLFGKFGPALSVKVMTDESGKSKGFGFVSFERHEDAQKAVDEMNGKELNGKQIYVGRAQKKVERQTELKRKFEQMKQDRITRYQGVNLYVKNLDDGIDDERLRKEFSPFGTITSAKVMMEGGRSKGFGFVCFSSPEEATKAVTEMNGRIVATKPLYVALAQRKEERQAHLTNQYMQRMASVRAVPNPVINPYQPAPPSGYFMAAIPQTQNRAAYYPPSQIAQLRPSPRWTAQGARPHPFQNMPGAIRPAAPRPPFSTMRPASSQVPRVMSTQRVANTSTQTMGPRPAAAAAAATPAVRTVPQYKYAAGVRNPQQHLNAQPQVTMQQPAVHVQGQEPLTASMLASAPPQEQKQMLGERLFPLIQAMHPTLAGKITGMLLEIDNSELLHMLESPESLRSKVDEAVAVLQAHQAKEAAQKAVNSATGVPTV
Chain of Large T antigen (P03070 whole entry): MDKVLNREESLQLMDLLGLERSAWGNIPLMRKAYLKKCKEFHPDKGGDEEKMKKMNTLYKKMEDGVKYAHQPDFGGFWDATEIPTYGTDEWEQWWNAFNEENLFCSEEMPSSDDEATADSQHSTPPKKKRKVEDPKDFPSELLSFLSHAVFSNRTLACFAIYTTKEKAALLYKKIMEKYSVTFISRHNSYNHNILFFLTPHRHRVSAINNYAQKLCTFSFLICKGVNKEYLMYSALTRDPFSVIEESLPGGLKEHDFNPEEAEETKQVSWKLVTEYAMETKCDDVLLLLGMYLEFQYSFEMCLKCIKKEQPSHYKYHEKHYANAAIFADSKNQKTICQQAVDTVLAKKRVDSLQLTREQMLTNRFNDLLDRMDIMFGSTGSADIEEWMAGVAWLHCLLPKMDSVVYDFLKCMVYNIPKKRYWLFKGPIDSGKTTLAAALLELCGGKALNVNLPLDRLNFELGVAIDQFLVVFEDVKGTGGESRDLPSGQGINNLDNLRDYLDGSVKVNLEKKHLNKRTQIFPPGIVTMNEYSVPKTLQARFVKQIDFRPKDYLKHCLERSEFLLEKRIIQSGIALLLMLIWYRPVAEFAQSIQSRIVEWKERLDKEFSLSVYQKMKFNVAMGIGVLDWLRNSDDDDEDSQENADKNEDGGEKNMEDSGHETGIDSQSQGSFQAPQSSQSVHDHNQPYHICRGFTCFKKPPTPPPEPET

With `COc1ccc(/C=C/C(=O)OCC(=O)NCc2ccco2)cc1OC` the IC50 [1] was 14.5 µM (active).
In the case of `Cn1c(=O)c(NC(=O)c2ccccc2)c2n(c1=S)CCCCC2`, the IC50 [1] is reported as 14.3 µM (active).
In the case of `Cc1ccc(NC(=O)COC(=O)CN2C(=O)NC3(CCCC3)C2=O)cc1S(=O)(=O)N(C)C`, the EC50 [2] is reported as > 53 µM (inactive) and the IC50 [3] is reported as > 47.1 µM (inactive).
In the case of `CC(C)(C)c1ccc(C(=O)NNC(=O)C2CCCCC2)cc1`, the EC50 [4] is reported as 19.6 µM (active), the EC50 [5] is reported as 59.3 µM (active) and the EC50 [6] is reported as 30.7 µM (active).
In the case of `Cc1cc(Cl)ccc1N=C(S)Nc1cccnc1`, the IC50 [7] is reported as > 66 µM (inactive) and the IC50 [8] is reported as > 66 µM (inactive).
In the case of `COCCn1c(CN2CCN(c3cccc(Cl)c3)CC2)nc2c1c(=O)n(C)c(=O)n2C`, the AC50 [9] is reported as 11 µM (active), the AC50 [10] is reported as 52.3 µM (active) and the AC50 [11] is reported as 10.7 µM (active). The IC50 [12] was 12.3 µM (active).
With `Clc1ccc(-c2csc(N3CCOCC3)n2)cc1` the EC50 [2] was > 53 µM (inactive) and the IC50 [3] was > 47.1 µM (inactive).
For `COc1ccc(Cl)cc1N=C(S)Nc1ccccc1F`, the IC50 [7] was > 66 µM (inactive) and the IC50 [8] was > 66 µM (inactive).
With `CN1/C(=C\C(=O)c2cccc([N+](=O)[O-])c2)Sc2ccccc21` the IC50 [7] was > 66 µM (inactive) and the IC50 [8] was > 66 µM (inactive).
With `Cc1c(NC(=O)COC(=O)COc2ccc(Nc3ccccc3)cc2)c(=O)n(-c2ccccc2)n1C` the IC50 [13] was 35.3 µM (active).
With `Cc1nn(C)c(C)c1NC(=O)c1cc2nc(-c3ccco3)cc(C(F)(F)F)n2n1` the EC50 [2] was > 53 µM (inactive) and the IC50 [3] was > 47.1 µM (inactive).
In the case of `CCOc1cccc(-c2csc(C3COc4ccccc4O3)n2)c1` (stereo unspecified), the EC50 [4] is reported as 13.4 µM (active) and the EC50 [5] is reported as 37.5 µM (active).
For `O=[N+]([O-])c1ccc(O)c(CSc2nnnn2-c2ccccc2)c1`, the IC50 [12] was 12 µM (active).
For `COc1ccc(CN2CCN(C(=O)c3cccs3)CC2)c(OC)c1OC`, the EC50 [2] was > 53 µM (inactive) and the IC50 [3] was > 47.1 µM (inactive).
For `C1CCCCC1.OCCN1CCN(C2Cc3cc(Cl)ccc3Sc3ccc(Cl)cc32)CC1` (stereo unspecified), the AC50 [14] was 13 µM (active) and the CC50 [15] was 13.8 µM (active).
For `CCc1nc2cccnc2n1-c1ccc(C(=O)O)cc1`, the IC50 [7] was 49.5 µM (inactive) and the IC50 [8] was > 66 µM (inactive).
For `c1ccc(NC2=Nc3ccccc3CS2)cc1`, the EC50 [4] was 0.465 µM (active) and the EC50 [6] was 0.409 µM (active).
In the case of `O=[N+]([O-])c1ccc(C(O)CSC(=S)N2CCCCC2)cc1` (stereo unspecified), the EC50 [4] is reported as 7.46 µM (active), the EC50 [5] is reported as 32.7 µM (active) and the EC50 [6] is reported as 56.4 µM (active).
For `COC(=O)CC(NC(=S)NC(=O)c1ccccc1)c1ccc(Br)cc1` (stereo unspecified), the IC50 [7] was > 66 µM (inactive) and the IC50 [8] was > 66 µM (inactive).
For `CSc1nc2ncc(-c3ccsc3)c(N)n2n1`, the EC50 [4] was > 120 µM (not active), the EC50 [5] was 27.2 µM (active) and the EC50 [6] was 19.5 µM (active).
